Test results published in article PMC5008412, “A phase I study of indoximod in patients with advanced malignancies” (Oncotarget, 2016).

How the values were obtained:
[1] = system: Lewis lung cancer mouse xenografts; set-up: method as in PMID 15711557, PMID 16166276; conditions: transplanted Lewis lung cancer mouse xenografts; cited from earlier work
advanced solid tumors = assay: Response evaluation by RECIST 1.1; assay type: in vivo, human
Method: Overall response rate was determined via the criteria described by the RECIST 1.1 guidelines. Baseline evaluations were conducted within 14 days before start of therapy, with CT scans performed within 4 weeks before start of therapy. Patients were then reevaluated every 8 weeks with diagnostic CT scans. The best overall response achieved during study therapy was recorded for each patient. The response data presented herein underwent site radiology review. The duration of response was measured from the time criteria were met for complete or partial response until the first date that recurrent or progressive disease was documented.

[2] = Plasma pharmacokinetics (LC-MS/MS, non-compartmental); assay type: in vivo, human
Method: A validated liquid chromatography triple-quadrupole with tandem mass spectrometry method was used to determine levels of indoximod in plasma. The methods were validated per International Conference on Harmonization/Food and Drug Administration guidelines. Plasma samples were prepared for chromatographic injections by protein precipitation as described in Supplement 1.
Plasma concentration-time data for indoximod were analyzed by non-compartmental pharmacokinetic methods using Phoenix WinNonlin 6.3 (Pharsight Corp., Mountain View, CA). Data in the terminal, log-linear phase were analyzed by linear regression to estimate terminal elimination rate constant and half-life. These additional pharmacokinetic parameters were also determined: AUC0-48, AUC0-inf, Cmax, Tmax, terminal half-life (t1/2), apparent clearance, and apparent volume of distribution.

IDO = assay: Plasma kynurenine/tryptophan pharmacodynamics (HPLC); assay type: in vivo, human
Method: (§1) Plasma kynurenine and tryptophan levels were measured via high-performance liquid chromatography at baseline and during weeks 1-4 of treatment using previously published methods. Humoral responses toward multiple cancer-testis antigens were analyzed by a proprietary whole protein microarray (Serametrix, Carlsbad, CA) in a 200-μL plasma aliquot, collected at blood draws at baseline and at week 5. Autoantibody titers were reported as relative fluorescence units using human anti-IgG reporter antibodies with blank and predetermined IgG antibody titer control spots using a Perkin Elmer fluorescence scanner.

[3] = system: circulating T cell populations; assay: T-cell flow cytometry panel on patient blood; assay type: in vivo, human
Excerpt: At weeks 1, 3, 5, and 7 of treatment, patient blood was collected into 3 heparinized 10-mL Vacutainer tubes. Samples underwent Ficoll separation and cryopreservation for subsequent analyses. A total of 16 patients across dose levels 4-10 had satisfactory samples collected at all 4 time points for multiparameter flow analyses (see Table 1 for definition of dose levels). Flow cytometry analyses using a T-cell panel (CCR6-FITC, CD45RO-PerCP-Cy5, CD45RA-BV421, HLADR-BV650, CD4-PE, CD25-PECy7, CD127-Alexa 647, CD3- BUV395, Live/Dead Aqua, CD8-BUV737) to determine changes in circulating levels of T-regulatory cells (CD4+CD25+CD127low), naïve (CD45RA+) versus memory (CCR6+/−CD45RO+) CD4 and CD8 T cells, and activated T-cell subsets (HLA-DR+) were carried out in the Moffitt Flow Cytometry Core on an LSRII with compensation beads and fluorescence minus one controls. Gating was done using fluorescence minus one thresholds, and analyses were done using FloJo X software. Mean percentages of the populations were calculated from single, live, CD3+-gated events and analyzed across the 4 time points for the entire group, with lower (dose levels 4-8) versus higher (dose levels 9-10) dose levels compared using ANOVA in Prism GraphPad. P levels of 0.05 indicated significance.

C-reactive protein = C-reactive protein levels; assay type: in vivo, human
Excerpt: Physical examinations, autoimmunity evaluations, complete blood counts, metabolic panels, and C-reactive protein levels were obtained at baseline and every 2 weeks. Pituitary function tests (thyroid-stimulating hormone, free T4, luteinizing hormone, follicular stimulating hormone, and adrenocortical hormone) and anti-nuclear autoantibody titers were obtained at baseline and every 4 weeks.

[4] = system: 30 different tumor-associated antigens; assay: Autoantibody titers to tumor-associated antigens (Serametrix protein microarray); assay type: in vivo, human; conditions: week 5; of 40 patients evaluated; P < 0.05
Method: as §1

[5] = set-up: method as in PMID 17234791; conditions: combined with cyclophosphamide; compared among forms of 1-methyl-tryptophan; cited from earlier work

| Structure (SMILES) | effect on tumor growth [1] | patients with stable disease >6 months (advanced solid tumors; of 48 patients) | single-agent antitumor activity (advanced solid tumors; patients with advanced solid tumors) | best response (advanced solid tumors; site radiologist assessment, RECIST 1.1) | half-life ([2]; human, plasma, po) | Cmax ([2]; human, plasma, 2000 mg twice/day oral) | dose range with linear dose response of AUC and Cmax ([2]; oral) | single doses with plateauing of peak serum levels ([2]; oral) | drug renally cleared ([2]; patients) | oral bioavailability ([2]; patients) | time at which Cmax occurred ([2]; plasma, oral) | anticipated therapeutic dose of 10 to 15 μM ([2]; serum drug level with current dosing schedules) | effect on circulating kynurenine levels (IDO) | changes in T cell populations (Treg, naive/memory CD4 and CD8, activated subsets) ([3]; baseline through week 7, group as a whole) | dose-dependent changes in T cell populations ([3]; higher dose levels versus lower dose levels) | C reactive protein (CRP) levels (C-reactive protein; across multiple dose levels) | mean level of C-reactive protein (C-reactive protein; week 3 of treatment, baseline 3.81 mg/dL, P = 0.02) | patients with significantly higher autoantibody titers than at baseline [4] | in vivo antitumor activity [5] |
| --- | --- | --- | --- | --- | --- | --- | --- | --- | --- | --- | --- | --- | --- | --- | --- | --- | --- | --- | --- |
| Cn1cc(CC(N)C(=O)O)c2ccccc21 (racemic) [1-methyl-DL-tryptophan] | delaying growth | – | – | – | – | – | – | – | – | – | – | – | – | – | – | – | – | – | – |
| Cn1cc(C[C@@H](N)C(=O)O)c2ccccc21 [indoximod, 1-methyl-D-tryptophan] | – | 5 | modest | stable disease | 10.5 h | ~12 µM | up to 800 mg once daily | ≥ 1600 mg | 20% | good | 2.9 h | reached | lack of effect | did not identify any statistically significant changes | no detectable dose-dependent changes | increased | 5.13 mg/dL | 12 | superior |
